From patent publication US5330897A, “Sialic acid binding lectin of protozoan origin” (South Alabama Medical Science Foundation, priority 1992, dated 1994)

Key:
[1] = tested on: live T. mobilensis flagellates; experiment: Inhibition of hemagglutination by live T. mobilensis; details: sugars up to 100 mM; normal erythrocytes, room temperature
[2] = tested on: T. mobilensis attachment to CHO cells; experiment: Carbohydrate inhibition of T. mobilensis adherence to CHO cells; assay type: cell-based, Tritrichomonas mobilensis; details: concentration-dependent; other carbohydrates up to 100 mM
Experimental: The kinetics of T. mobilensis-CHO trypsin-dispersed cell interactions were studied in a cell suspension system. Equal volumes (100 μl) of 10^5 CHO cells and 10^6 (unless otherwise specified) trichomonads resuspended in serum-free M199 were mixed in microfuge tubes and incubated at room temperature (unless otherwise stated) with gentle agitation. Periodically the percentage of CHO cells with adherent flagellates was determined microscopically in wet-mount preparations, 100 CHO cells being examined in each preparation.

[3] = tested on: T. augusta cell-free lysate hemagglutinin; experiment: Inhibition of HA activity of T. augusta cell-free lysate; assay type: biochemical, Tritrichomonas augusta
[4] = tested on: T. mobilensis hemolysis of erythrocytes; experiment: Whole organism hemolysis assay, inhibition; assay type: cell-based, Tritrichomonas mobilensis
Source text: Tritrichomonas mobilensis, an enteric parasite of squirrel monkeys, adheres readily to isolated monkey intestinal epithelial cells and agglutinates human erythrocytes in vitro. These activities are mediated by a sialic acid binding lectin. Hemagglutination by either parasites or purified lectin is inhibited by N-acetylneuraminic acid and anti-lectin monoclonal antibody (MAB), but not by 2,3-dehydro-2-desoxy-N-acetylneuraminic acid, a neuraminidase inhibitor. T. mobilensis hemolyzes erythrocytes in a modification of a previously published whole organism hemolysis assay. Hemolysis is inhibited by N-acetylneuraminic acid, 2,3-dehydro-2-desoxy-N-acetylneuraminic acid, anti-lectin MAB, T. mobilensis lectin and other sialic acid binding lectins, fetuin, and colominic acid, but not by asialofetuin, or leupeptin. Desialated erythrocytes are neither agglutinated nor hemolyzed.

[5] = tested on: T. foetus cell-free lysate hemagglutinin; experiment: Inhibition of HA activity of T. foetus cell-free lysate; assay type: biochemical, Tritrichomonas foetus
[6] = tested on: T. mobilensis cell-free lysate hemagglutinin; experiment: Inhibition of HA activity of T. mobilensis cell-free lysate; assay type: biochemical, Tritrichomonas mobilensis
[7] = tested on: T. mobilensis lectin; experiment: Inhibition of T. mobilensis lectin-mediated hemagglutination; assay type: biochemical, Tritrichomonas mobilensis; details: for Minimal Inhibitory Conc.: 2 units of hemagglutinin; for Inhibition of HA activity of purified lectin (in words): concentrations up to 100 mM where stated
[8] = tested on: sialidase from T. mobilensis; experiment: Inhibition of sialidase activity associated with the affinity column; assay type: biochemical, Tritrichomonas mobilensis; details: 1 mM inhibitor
Experimental: Free sialic acid release from bovine submaxillary mucin was used to determine enzymatic activity. Sample to be tested (total volume 50 μl) was mixed with 250 μl of 0.1M acetate, pH 5.0 and 200 μl of 1% mucin in water. After incubation at 37° for 30 minutes, 0.5 ml of 5% phosphotungstic acid in 2.5N HCl was added with vortexing. Assay tubes were centrifuged at 2000×g for 10 minutes, and 250 μl of the supernatant was assayed for sialic acid by the thiobarbituric acid method (Warren, J. Biol. Chem. 234:1971-1975 (1959)). Activity was calculated as μmoles of sialic acid released during a 30 min incubation at 37°. Controls were identical samples precipitated by phosphotungstic acid before the 37° incubation.
The sialidase(s) from T. mobilensis can be separated from HA activity by carefully controlling elution conditions from the affinity column. […] Affinity purified lectin is not inhibited at inhibitor concentrations up to 100 mM, while the sialidase activity associated with the column is inhibited by 50% at 1 mM inhibitor. […] Alternatively, they may simply reflect the affinity of the sialidase for mucin.

[9] = tested on: live cells of T. foetus; experiment: Inhibition of HA by live cells of T. foetus; assay type: cell-based, Tritrichomonas foetus

## N-acetylneuraminic acid-lactose [sialyllactose]
[1]
  Inhibition of hemagglutination by live T. mobilensis: inhibited
[2]
  Inhibition of attachment of parasites to CHO cells: inhibited

## CC(=O)N[C@H]1[C@H]([C@H](O)[C@H](O)CO)OC(O)(C(=O)O)C[C@@H]1O (stereo partly shown) [N-acetylneuraminic acid]
[3]; carbohydrates, […]
  Conc. required to inhibit 2 HA units, T. augusta: 10 µg/mL
[4]
  Inhibition of hemolysis: inhibited
[5]; carbohydrates, […]
  Conc. required to inhibit 2 HA units, T. foetus: > 200 µg/mL
[6]; carbohydrates, […]
  Conc. required to inhibit 2 HA units, T. mobilensis: 5 µg/mL
[1]
  Inhibition of hemagglutination by live T. mobilensis: inhibited
[7]; carbohydrates
  Minimal Inhibitory Conc.: 2.0 mM
[7]
  Inhibition of HA activity of purified lectin (in words): inhibited
[2]
  Inhibition of attachment of parasites to CHO cells: inhibited

## O=C(CO)N[C@H]1[C@H]([C@H](O)[C@H](O)CO)OC(O)(C(=O)O)C[C@@H]1O (stereo partly shown) [N-glycolylneuraminic acid]
[1]
  Inhibition of hemagglutination by live T. mobilensis: inhibited
[7]; carbohydrates
  Minimal Inhibitory Conc.: 8.3 mM

## CC(=O)N[C@H]1[C@H]([C@H](O)[C@H](O)CO)OC(C(=O)O)=C[C@@H]1O [2,3-dehydro-2-deoxy-N-acetylneuraminic acid]
[4]
  Inhibition of hemolysis: inhibited
[8]
  Inhibition of sialidase activity: 50%
[7]; carbohydrates
  Minimal Inhibitory Conc.: > 100 mM
[7]
  Inhibition of HA activity of purified lectin (in words): not inhibited

B1: Fetuin: sialoconjugate (sialoglycoprotein) (protein, UniProt P12763 19-359, looked up)
Alpha-2-HS-glycoprotein: IPLDPVAGYKEPACDDPDTEQAALAAVDYINKHLPRGYKHTLNQIDSVKVWPRRPTGEVYDIEIDTLETTCHVLDPTPLANCSVRQQTQHAVEGDCDIHVLKQDGQFSVLFTKCDSSPDSAEDVRKLCPDCPLLAPLNDSRVVHAVEVALATFNAESNGSYLQLVEISRAQFVPLPVSVSVEFAVAATDCIAKEVVDPTKCNLLAEKQYGFCKGSVIQKALGGEDVRVTCTLFQTQPVIPQPQPDGAEAEAPSAVPDAAGPTPSAAGPPVASVVVGPSVVAVPLPLHRAHYDLRHTFSGVASVESSSGEAFHVGKTPIVGQPSIPGGPVRLCPGRIRYFKI
[9]
  Conc. required to Inhibit 2 HA Units: 60 µg/mL
[3]; sialoglycoproteins
  Conc. required to inhibit 2 HA units, T. augusta: 100 µg/mL
[4]
  Inhibition of hemolysis: inhibited
[5]; sialoglycoproteins
  Conc. required to inhibit 2 HA units, T. foetus: 60 µg/mL
[6]; sialoglycoproteins
  Conc. required to inhibit 2 HA units, T. mobilensis: 100 µg/mL
[7]; glycoproteins or proteins
  Minimal Inhibitory Conc.: 8.33 µg/mL
